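Cells were grown in 96-well plates and exposed to each compound for 48 hours at five concentrations; endpoints were interpolated linearly between bracketing concentrations, or set to the highest concentration if not reached. GI50: concentration for 50% inhibition of growth. TGI is the concentration that stops growth completely.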 Some results are limits rather than exact numbers.

Common to all, as to assay: growth of human tumour cells (NCI), 48 h
Experiment [1] relates to SF-268 CNS.
In experiment [2] the test system is SK-MEL-5 melanoma.
Experiment [3] relates to RXF 393 renal.
The test system of experiment [4] is LOX IMVI melanoma.
Experiment [5] relates to OVCAR-5 ovarian.
Experiment [6] concerns 786-0 renal.
Experiment [7] relates to OVCAR-3 ovarian.
Experiment [8] has as its system HOP-92 NSCLC.
Experiment [9] has as its system BT-549 breast.
Experiment [10] has as its system MDA-MB-231 breast.

Take `Cc1ccccc1N=Cc1ccc(N(CCC#N)S(=O)(=O)c2ccccc2)cc1`: the TGI in [1], in experiment [2], in [3], in experiment [4], in experiment [5] and in [6] was > 100 µM throughout. For the same molecule, the TGI in [7] and in experiment [8] was > 100 µM throughout.

On to `[N-]=[N+]=Nc1ccccc1-[n+]1noc([O-])c1Br`, for which the TGI in experiment [1], in [2], in experiment [3], in experiment [6], in experiment [7] and in experiment [8] was > 100 µM each time.

As to `O=C(c1ccccc1)c1ccc(Cl)c([N+](=O)[O-])c1`, the GI50 is 4.48 µM in experiment [1]; 14.7 µM in experiment [2]; 16.7 µM in experiment [9]; 2.43 µM in experiment [4]; 4.38 µM in [5]; 21 µM in [6]. The results for the GI50 in [10] and in experiment [7] were 3.61 µM and 3.83 µM, respectively. In addition, the TGI in [1] was found to be 18 µM; in experiment [2] it was 28.3 µM; in [9], 31.5 µM; in experiment [4] it was 6.11 µM; in experiment [5] it was 18.7 µM; in experiment [6], 99.2 µM. Moreover, the TGI in experiment [10] turned out to be 11.7 µM; in experiment [7], 12.7 µM.

Turning to `COc1ccc2nc3cc(Cl)ccc3c(NCCC(=O)OCC(O)C(O)C(O[C@H](C)C(=O)NC(C)C(=O)NC(CCC(N)=O)C(=O)OCc3ccccc3)C(C=O)NC(C)=O)c2c1` (stereo partly drawn), the TGI in [1] was 32.8 µM; in [2], 30.2 µM; in experiment [5] it was 47 µM; in [6], 31.9 µM; in [7], 34.7 µM; in experiment [8], 31.9 µM.

On to `C[C@]12CCC3[C@@H](C[C@H]4OC(=O)[C@@]35CCC(=O)C=C45)C1CCC2=O` (stereo partly drawn), for which the TGI in experiment [1], in experiment [2], in [3], in experiment [5], in [6] and in [7] was > 100 µM throughout. In experiment [8], the TGI is > 100 µM.

Turning to `COC(=O)CCC(=O)CC(=O)C(=O)Nc1ccc(F)cc1`, the TGI in experiment [1], in [2], in experiment [3], in experiment [4], in [5] and in experiment [6] was > 100 µM each time. Further, the TGI in experiment [7] and in experiment [8] was > 100 µM each time.

For the molecule `COc1ccc(C(=O)C(c2ccc(OC)cc2)C2C(=O)Oc3ccccc32)cc1` (stereo not drawn), the GI50 in experiment [1], in [2], in experiment [3], in experiment [5], in [6] and in experiment [7] was > 100 µM throughout. Also, the GI50 in experiment [8] is > 100 µM. The TGI in experiment [1], in experiment [2], in experiment [3], in [5], in experiment [6] and in [7] was > 100 µM each time. Also, the TGI in experiment [8] is > 100 µM.

Regarding `COc1ccc(S(=O)(=O)N2CCN(C(=O)OCc3ccccc3)CC2C(=O)NO)cc1` (stereo not drawn), the GI50 in experiment [1] was > 25 µM; in [2], > 25 µM; in experiment [3] it was > 25 µM; in experiment [9] it was > 25 µM; in experiment [4], 1.28 µM; in experiment [5], > 25 µM. For the same molecule, the results for the GI50 in [6], in experiment [10] and in [7] were > 25 µM, > 25 µM and 12.1 µM, respectively. The TGI is > 25 µM in experiment [1]; > 25 µM in experiment [2]; > 25 µM in experiment [3]; > 25 µM in experiment [9]; 4.6 µM in [4]; > 25 µM in experiment [5]. The TGI in experiment [6], in experiment [10] and in experiment [7] was > 25 µM throughout.

Turning to `Cc1cc(C)nc(NS(=O)(=O)c2ccc(NC(=O)c3cccc4c(Nc5ccc(S(=O)(=O)Nc6nc(C)cc(C)n6)cc5)c5ccccc5nc34)cc2)n1`, the TGI was 93 µM in [1]; 36.6 µM in experiment [2]; 31.5 µM in experiment [3]; 38.7 µM in [4]; 46.8 µM in experiment [6]; 39.8 µM in experiment [7]. In experiment [8], the TGI was 45.1 µM.

As for `COc1ccc(CN2C(=O)C(Cc3cc(OC)c(OC)c(C)c3OC)N(C(=O)OC(C)C)C(=O)/C2=C/c2cc(OC)c(OC)c(C)c2OC)cc1` (stereo not drawn), the TGI in experiment [1], in experiment [2], in [3], in experiment [4], in experiment [5] and in experiment [6] was > 100 µM in each case. The TGI in experiment [7] and in experiment [8] was > 100 µM each time.

As for `COC(=O)CSc1ccccc1`, the TGI was > 100 µM in [1]; > 100 µM in [2]; > 100 µM in [3]; > 100 µM in [4]; > 100 µM in [5]; 30.1 µM in experiment [6]. The TGI in [7] is > 100 µM; in experiment [8], 99.1 µM.

For the molecule `COc1ccc(/C=C2\N=C(c3ccccc3)N(c3cc(C(F)(F)F)ccc3Cl)C2=O)cc1OC`, the GI50 in [1] was 31.8 µM; in experiment [2], 25 µM; in experiment [3] it was 33.5 µM; in experiment [4] it was 23.8 µM; in experiment [5], > 100 µM; in experiment [6], 13.8 µM. Also, the GI50 was 87 µM in experiment [10], 37.9 µM in [7] and 83.9 µM in experiment [8]. Further, the TGI in experiment [1] was > 100 µM; in experiment [2], 54.9 µM; in [3], 68.3 µM; in experiment [4] it was 51.6 µM; in experiment [5], > 100 µM; in experiment [6] it was 37.3 µM. The TGI in experiment [10], in [7] and in [8] was > 100 µM throughout.

Regarding `COc1c(OC(C)=O)c(OC(C)=O)cc2c1-c1ccc(OC)c(=O)cc1C(NC(C)=O)CC2` (stereo not drawn), the TGI in [1] was 54.4 µM; in experiment [2], 0.0264 µM; in experiment [9], > 100 µM; in experiment [4], > 100 µM; in experiment [5], > 100 µM; in experiment [6], > 100 µM. The TGI is > 100 µM in [10] and 0.071 µM in [7].

In the case of `CN(C)c1ccccc1CC(c1c[nH]c2ccccc12)c1c[nH]c2ccccc12`, the TGI in [1] came out at 28.8 µM; in [2], 28.8 µM; in experiment [3], 20.2 µM; in [4] it was 24.4 µM; in [5] it was 30.5 µM; in experiment [6], 25.4 µM. In experiment [7], this molecule showed a TGI of 25.6 µM.

As for `Nc1nc(=O)n(C2CC(O)C(O)C(CO)O2)cc1F` (stereo not drawn), the TGI in experiment [1], in [3], in experiment [4], in experiment [5], in experiment [6] and in [7] was > 100 µM each time.

As for `O=C(Nc1ccc(Cl)c(Cl)c1)C(=O)Nn1c(=S)[nH]c2ccccc2c1=O`, the TGI in [1], in experiment [2], in [3], in [4], in experiment [5] and in experiment [6] was > 100 µM throughout. Also, in experiment [8], the TGI is > 100 µM.

With `O=c1oc2c3ccc4ccccc4c3n(CCN3CCOCC3)c2c2ccccc12`, the TGI in experiment [1], in [4], in experiment [6], in experiment [7] and in [8] was > 100 µM each time.

On to `COc1ccc(NC(=O)CC/C(CC(=O)c2ccccc2Cl)=N\Nc2nnc(C)n2N)cc1`, for which the TGI in experiment [1], in [3], in [4], in [5], in [6] and in experiment [8] was > 100 µM in each case.

As to `COc1ccc2c(c1)CCc1cnn(C3OC(COC(C)=O)C(OC(C)=O)C(OC(C)=O)C3OC(C)=O)c1-2` (stereo not drawn), the TGI in experiment [1] was > 100 µM; in experiment [2], > 100 µM; in [4], > 100 µM; in experiment [5], > 100 µM; in [6] it was 75.6 µM; in [7], 56.7 µM. Also, the TGI in [8] was found to be 51.5 µM.

As for `COCC1C(=O)c2cc3c(cc2C12C=CC1(C=C2)OCCO1)OCO3` (stereo not drawn), the TGI in experiment [1] is 16 µM; in experiment [3], 20.9 µM; in experiment [6], 4.54 µM; in [7], 26.5 µM; in experiment [8], 29.6 µM.

As for `CCOC(=O)C1c2[nH]c3ccccc3c2CCN1C(=O)c1ccco1` (stereo not drawn), the TGI in [1], in experiment [2], in [9], in experiment [6], in experiment [10] and in experiment [7] was > 10 µM in each case. The TGI in experiment [8] was > 10 µM.

For the molecule `CN(C)c1ccc(/C=C/C(=O)c2ccccc2)cc1Br`, the TGI in experiment [1] was 49.3 µM; in experiment [2] it was 39.1 µM; in [5], > 100 µM; in experiment [6], 31.8 µM; in experiment [7] it was 35.5 µM.

On to `COc1ccc(C(=O)/C(=N/Nc2ccccc2)c2ccc(OC)cc2)cc1`, for which the TGI in experiment [2], in [3], in [5] and in experiment [6] was > 100 µM throughout.

For the molecule `COC(=O)NNc1c([N+](=O)[O-])cnn(-c2ccccc2)c1=O`, the TGI is 7.71 µM in experiment [1]; 8.36 µM in experiment [2]; 10.1 µM in experiment [3]; 3.21 µM in experiment [9]; 3.2 µM in experiment [4]; 8.23 µM in [5]. Moreover, the TGI in experiment [6] turned out to be 7.39 µM; in experiment [7] it was 3.56 µM; in experiment [8], 3.9 µM.

In the case of `Cc1cc2c(cc1C)N1Cc3c(ccc(C)c3C)N(C2)C1` (tested in a mixture with another compound), the TGI in [1], in [2], in [3], in experiment [4], in [6] and in experiment [7] was > 100 µM throughout.

As to `O=C1C(c2ccc([N+](=O)[O-])cc2)=[N+]([O-])c2ccccc21`, the TGI is > 100 µM in [1]; 31.5 µM in experiment [2]; 60.4 µM in [3]; 60.9 µM in experiment [4]; 47.5 µM in [5]; > 100 µM in experiment [6]. Further, the figures for the TGI in [7] and in experiment [8] were 55.4 µM and 77.4 µM, respectively.

Take `O=c1cc2n(c(=O)[nH]1)C1OC(C(O)C1O)[C@H]2CCO` (stereo partly drawn): the TGI in experiment [1], in [2], in experiment [3], in experiment [4], in experiment [5] and in [6] was > 100 µM in each case. In addition, the TGI in [8] is > 100 µM.

Consider `O=c1c2cc(Br)ccc2[nH]c(=S)n1-c1ccc(Br)cc1`, for which the TGI was > 100 µM in experiment [1]; > 100 µM in experiment [3]; > 100 µM in experiment [4]; > 100 µM in experiment [6]; > 100 µM in experiment [7]; 75.7 µM in experiment [8].

As for `O=C(CC1(O)C(=O)Nc2c(Cl)cccc21)c1ccccc1` (stereo not drawn), the TGI in [1], in experiment [2], in experiment [3], in experiment [4], in experiment [5] and in [6] was > 100 µM each time. The TGI in [7] and in [8] was > 100 µM throughout.

Consider `O=C(CCCCC(=O)N/N=C\c1ccccc1Cl)N/N=C\c1ccccc1Cl`, for which the GI50 is 13.5 µM in experiment [1]; 3.94 µM in [2]; 11 µM in experiment [3]; > 100 µM in experiment [4]; > 100 µM in experiment [5]; 14.7 µM in experiment [6]. For the same molecule, the results for the GI50 in experiment [10], in experiment [7] and in experiment [8] were 12.5 µM, 0.598 µM and 1.95 µM, respectively. Besides, the TGI in [1] was 56.7 µM; in experiment [2] it was > 100 µM; in experiment [3] it was 32.7 µM; in experiment [4] it was > 100 µM; in experiment [5], > 100 µM; in [6] it was 74.9 µM. The TGI in [10] came to 55.7 µM; in experiment [7] it was 28.8 µM; in [8] it was 19.2 µM.
